According to patent publication US9980924B2, “Topical pterostilbene compositions for use in treating UV-induced loss of barrier function in skin” (The Regents of the University of California, priority 2014, dated 2018):
“Also recorded” adds a separate entry of the source.

Assays:
human liver microsomes = experiment: in vitro glucuronidation assay with pooled human liver microsomes; type: in vitro ADME; conditions: 100 μg pooled human liver microsomes (n=20), 500 μM compound
Procedure: Human liver microsomes metabolize resveratrol much faster than pterostilbene. […] HPLC chromatographs are presented depicting either parent compound or indicated glucuronide metabolite. Glucuronide metabolite peaks were confirmed by subsequent treatment with β-glucuronidase (data not shown). Detection of peaks by UV/VIS detector at 308 nm.
Specifically, in vitro glucuronidation assays were performed as previously described in one co-inventor's work (Dellinger, R. W., et al., “Glucuronidation of PhIP and N—OH-PhIP by UDP-glucuronosyltransferase 1A10,” Carcinogenesis (2007) 28: 2412-8; Dellinger, R. W., et al., “Importance of UDP-glucuronosyltransferase 1A10 (UGT1A10) in the detoxification of polycyclic aromatic hydrocarbons: decreased glucuronidative activity of the UGT1A10139Lys isoform,” Drug Metab. Dispos. (2006) 34: 943-9; Chen, G., Dellinger, R. W., et al., “Glucuronidation of tobacco-specific nitrosamines by UGT2B10,” Drug Metab. Dispos.

SKH-1 mice = experiment: UV-B-induced skin damage and loss of barrier function (redness, TEWL) in SKH-1 mice, topical treatment; type: in vivo; conditions: topical 10 μmol/0.2 ml acetone/mouse 30 minutes before 180 mJ/cm^2 UV-B, every 2 days, 7 treatments; for prevention of UV-mediated transepidermal water loss (TEWL) / loss of barrier function: versus vehicle+UV-B
From the text: FIG. 2 depicts the manner in which pterostilbene prevents UV-B induced damage in the skin of SKH-1 mice. […] Photographs show representative mice after 4th treatment.
FIG. 3 depicts the manner in which pterostilbene prevents UV-mediated loss of skin barrier function in SKH-1 mice after exposure to UV-B radiation as described above for FIG. 2. TEWL measurements are expressed in g/m^2·h (and labeled ‘TD Water Loss’).
UV-B exposure. Mice were exposed to a single dose of 180mJ/cm^2 UVB radiation delivered via broadband UVB lamps (TL 40W/12 RS; Philips) emitting 290-350 nm light with a peak emission at 312 nm. The irradiance was measured using a thermopile sensor (818P-001-12; Newport Inc., Irvine, Calif.) and power meter (842-PE; Newport Inc.).
TEWL measurement. For transepidermal water loss (TEWL) a closed measurement chamber device (VapoMeter, Delfin Technologies Ltd, Kuopio, Finland) measuring flux density (gram/m^2·h) was used applying the sensor with even and constant pressure to dorsal skin by a single operator per manufacturer's instructions.
Statistics. All statistical analyses were performed using CRAN R, version 3.0.0, an open-source program of The R Foundation for Statistical Computing. Linear mixed-effect models were fit for each endpoint with a random effect for the mouse and fixed effects for UV exposure, treatment group, and their interaction.
Hairless SKH-1 mice were used to evaluate the effectiveness of pterostilbene at preventing UV-mediated damage in skin. The SKH-1 model is ideally suited for this purpose and is commonly used in preclinical studies and yielded valuable results. […] To ascertain if pterostilbene could also prevent those molecular alterations, we replicated these experiments. […] For all topical treatments 200 μl total volume was applied to the back skin of the mouse. For acetone group, 200 μl of acetone was applied. […] These mice were treated every 2 days for 7 total treatments. […] 24 hrs after last treatment, mice were euthanized, skin bi-fold measurements taken and back skins collected. […] This prevention of visual skin damage by pterostilbene correlated nicely with the prevention of loss of barrier function. […] Therefore pterostilbene prevented UV-induced loss of barrier function of the skin of SKH-1 mice.

[1] = cited from earlier work
[2] = rats; cited from earlier work
[3] = 125 mg orally twice a day; cited from earlier work
mouse epidermis = conditions: cited from earlier work
mouse skin = conditions: cited from earlier work
[4] = humans; cited from earlier work

fraction metabolized (glucuronidated) after 2 hours (human liver microsomes) [%] | Compound | redness (sunburn) on back skin after UV-B (SKH-1 mice) | prevention of UV-mediated transepidermal water loss (TEWL) / loss of barrier function (SKH-1 mice) | half life t1/2 in blood [1] | increased bioavailability in comparison to resveratrol [2] [fold] | overall blood pressure [3] | toxicity in patients [3] | COX-2 activation and TPA-induced tumor formation in mouse epidermis in vivo (mouse epidermis) | conversion to glucuronides after 2 hours (in words) (human liver microsomes) | prevention of UV-mediated transepidermal water loss (TEWL) / loss of barrier function (SKH-1 mice; listed as Resveratrol) | UV-B mediated cell damage (including hyperplasia) in mouse skin (mouse skin; given orally or applied topically) | UV-induced skin cancer progression (mouse skin; several mouse studies) | bioavailability (in words) [4]
20 | COc1cc(/C=C/c2ccc(O)cc2)cc(OC)c1 [pterostilbene, 3,5-dimethoxy-4′-hydroxy-trans-stilbene] | no redness was observed on any of the 5 mice | prevents TEWL after UV exposure; also recorded: prevented UV-mediated TEWL | about 105 minutes | 5 | reduction in overall blood pressure was observed | no toxicity reported | prevent |  |  |  |  | 
 | Oc1ccc(C=Cc2cc(O)cc(O)c2)cc1 [resveratrol] | able to limit the amount of redness observed on the back, it did not prevent it | did not prevent TEWL | about 14 minutes |  |  |  |  | almost completely converted to its glucuronides | ineffective | prevents UV-B mediated cell damage (including hyperplasia) | block UV-induced skin cancer progression | poor bioavailability
